Results: patent US20250051375A1, “ANTI-HIV COMPOUNDS” (Gilead Sciences, Inc., priority 2023, published 2025)
pEC50: −log10 of the molar value. ≈ marks a conversion by molar mass, not a printed value.

Assays:
HIV-1 IIIB strain = test: MT-4 HIV Wild Type Virus Infection Assay (IIIB Virus); type: cell-based; settings: Human immunodeficiency virus 1, IIIB, MT4, 120 h, MT-4 cells acutely infected with HIV-1 IIIB, 5 day incubation, Cell-titer glo
Procedure: Test compounds and controls were serially diluted and spotted in replicate into 384 well black assay plates via acoustic transfer (Echo). MT-4 cells were grown in batch, centrifuged and resuspended into fresh CCM media (RPMI w/10% FBS, 1% PS) at 2×10^6 cells/ml. MT-4 cells were acutely infected with HIV-1 IIIB strain. The size of each infection mix was scaled by the number of sample plates to be tested. Each infection mix was transferred into 5 mL closed tubes and nutated rapidly on a shaker at 37° C. incubator for 1 hour. The infection mixes were then diluted 25× in fresh cell culture media and then added to assay plates at 40 μL per well using a ViaFlo 384 pipettor. After 5 day incubation at 37° C. in a CO2 incubator, assay plates were processed with Cell-titer glo reagent using a ViaFlo 384 with an addition/mixing program. Plates were read immediately on Envision reader. Assay signals were plotted and dose response curves generated to determine individual compound EC50s.

[1] = target: bovine intestinal alkaline phosphatase (Bos taurus (Bovine), UniProt P19111); test: BiALP: conversion by bovine intestinal alkaline phosphatase; type: in vitro ADME; settings: 2 μM substrate, 100 ng/mL iALP, Tris pH 7.8, 37° C., 60 minutes; for [Intermediate A] or [Amprenavir]: parent formed
Procedure: Fosamprenavir and its parent compound (amprenavir) were purchased from Millipore Sigma (St. Louis, MO). Test compounds, Intermediate A, fosamprenavir, and amprenavir were each separately dissolved in dimethyl sulfoxide (DMSO) at a concentration of 10 mM to form stock solutions.
All other chemicals were purchased from Millipore Sigma (St. Louis, MO) and Thermo Fisher Scientific (Waltham, MA). […] Internal Standard/Quench (IS/Q) was 100 nM labetalol in 99:1 (v/v) acetonitrile/formic acid.
Incubations were performed with Tris buffer alone (0.1 M Tris-HCl pH 7.8 containing 1 mM MgCl2 and 1 mM ZnCl2) or the same Tris buffer further containing 100 ng/mL iALP (0.01 units/mL). Triplicate 100 μL aliquots of Tris buffer±iALP were warmed to 37° C. and the reactions were initiated by the addition of the test compound or fosamprenavir to obtain final substrate concentrations of 2 μM. Incubations were then continued at 37° C. At 60 minutes, reactions were terminated by the addition of 200 μl of IS/Q and mixed by pipette. […] Aliquots (150 μL) of the supernatants were transferred to fresh plates containing 150 μL of water. Aliquots (15 μL) of the diluted supernatants were analyzed by mass spectrometry as described below.
Quantification of the test compounds and fosamprenavir was performed by analyte/internal standard peak area ratios (PARs) with comparison to 2 μM Intermediate A and amprenavir, respectively. The LC instrumentation consisted of a Thermo Scientific Vanquish pump and a Thermo Hypersil Gold column (1.9 μm particle size, 2.1×50 mm). […] The MS instrument was a Thermo Q Exactive™ Plus operating in positive ionization mode with mass tolerance of 5 ppm and calibrated on a twice weekly basis.

PBS Stability Assay = type: physicochemical; settings: buffer, pH 7.4, 2 μM, phosphate buffered saline pH 7.4; read-out: PBS T½
Procedure: Reagents. Stock solutions of test compounds in dimethyl sulfoxide (DMSO) having a final concentration of 10 mM were prepared and used in all experiments. Sekisui XenoTech (Kansas City, KS) provided pooled intestinal S9 fractions. All other chemicals were purchased from Sigma-Aldrich (St. Louis, MO) or VWR (West Chester, PA). Internal Standard/Quench (IS/Q) used to stop reactions was 100 nM labetalol in (by volume) formic acid (1%) and acetonitrile (99%).
PBS Stability Assay: For each test compound, an aliquot of the test compound was added to phosphate buffered saline (137 mM NaCl, 2.7 mM KCl, 10 mM phosphate buffer), pH 7.4. The incubation was initiated by the addition of the test compound to PBS to a final concentration of 2 μM. At 0, 10, 20, 30, 60 and 120 min, 25 μL aliquots of the incubation mixture were transferred to plates containing 225 μl of IS/Q solution. After quenching, the plates were centrifuged at 3000×g for 30 minutes. 150 μL aliquots of each supernatant were transferred to new plates and 150 μL water was added. Aliquots (10 μL) of the prepared samples were analyzed on a Thermo Q-Exactive mass spectrometer as described below.
Liquid Chromatography-Mass Spectrometry: Quantification of test compounds and control substrate was performed by analyte/internal standard peak area ratio (PAR) values measured on a Thermo Q-Exactive mass spectrometer coupled to a Dionex UltiMate 3000 HPLC with a Leap Technologies HTC PAL autosampler. The column used for analysis was a Thermo Scientific Hypersil GOLD (1.9 μm particle size, 50×2.1 mm). Mobile phase A consisted of 0.1% (v/v) formic acid in water. Mobile phase B consisted of 0.1% (v/v) formic acid in acetonitrile. Elution of analytes was achieved by a series of linear gradients varying the proportions of A and B. The mass spectrometer was calibrated on a weekly basis and mass tolerance of 5 ppm was used.
Data Analysis. Metabolic stabilities were determined by measuring the rates of disappearance of test compound and positive control substrate. Data (% of substrate remaining) were plotted on a semi-log scale and fitted using an exponential decline model:
where • Ct% of substrate remaining at time=t • C0% of substrate remaining at time=0 • t time • T½ half-life • The Half-life (T½) is determined by the following equation:
[formula] • Assuming a first-order reaction, the slope (k) is extrapolated from the aforementioned plotted data.

Solubility in FaSSIF = settings: 23 °C, pH 6.5, fassif, thermodynamic from solid
Procedure: Buffer Preparation: Fasted State Simulated Intestinal Fluid (FaSSIF): Simulated Intestinal Fluid (SIF) powder containing a complex of Taurocholate and Lecithin (4:1 molar ratio) was obtained from Biorelevant. 0.056 g of SIF powder was added to 25 mL of buffer, adjusted to pH 6.5, containing 0.011 g of NaOH (pellets), 0.099 g of NaH2PO4 (monohydrate), and 0.155 g of NaCl. The buffer was prepared with HPLC H2O. The SIE powder was stirred until completely dissolved and allowed to stand for 2 hours.
Test Compounds: Each test compound was placed in a vial containing approximately 7 mg of material. Aliquots were weighed out for each assay media at each time point to be analyzed. The buffer was added to each vial such that the final dose concentration of 5 mg/mL was achieved. Samples were then vortexed for 5-10 seconds.
The plate was sealed with a pierceable heat seal and analyzed by HPLC-UV.

bovine intestinal alkaline phosphatase, sequence (P19111 20-506): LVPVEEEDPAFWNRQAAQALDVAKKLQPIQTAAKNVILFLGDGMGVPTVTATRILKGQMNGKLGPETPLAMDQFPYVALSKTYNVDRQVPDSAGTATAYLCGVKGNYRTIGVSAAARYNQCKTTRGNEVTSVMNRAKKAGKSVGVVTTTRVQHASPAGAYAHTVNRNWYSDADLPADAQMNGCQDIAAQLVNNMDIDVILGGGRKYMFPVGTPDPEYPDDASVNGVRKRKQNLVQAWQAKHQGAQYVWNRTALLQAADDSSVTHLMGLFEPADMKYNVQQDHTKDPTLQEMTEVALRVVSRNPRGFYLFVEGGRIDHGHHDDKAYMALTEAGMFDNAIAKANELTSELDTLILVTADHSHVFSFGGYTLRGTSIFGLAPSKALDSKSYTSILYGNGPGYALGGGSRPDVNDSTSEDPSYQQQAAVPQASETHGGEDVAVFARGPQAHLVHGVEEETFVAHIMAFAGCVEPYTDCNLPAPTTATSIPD

COC(=O)N[C@H](C(=O)N[C@@H](Cc1ccc(C#Cc2cnc(N3CC4CCC(C3)N4C3COC3)nc2)cc1)[C@H](CN(Cc1c(F)cc(-c2ccn(C(F)F)n2)cc1F)NC(=O)[C@@H](NC(=O)OC)C(C)(C)C(F)(F)F)OC(=O)CC(C)(C)c1c(CC(=O)N(CCC(=O)O)[C@@H](CCC(=O)O)C(=O)O)cc(C)cc1OP(=O)(O)O)C(C)(C)C(F)(F)F [Example 44]
pEC50 (HIV-1 IIIB strain): 6.28 | [Compound] [1]: 1835.9 nM | half-life at 2 μM (PBS Stability Assay): 4.67 h | solubility at 2 h (Solubility in FaSSIF): 4550 µg/mL (≈ 2700 µM)

COC(=O)N[C@H](C(=O)N[C@@H](Cc1ccc(C#Cc2cnc(N3CC4CCC(C3)N4C3COC3)nc2)cc1)[C@H](CN(Cc1c(F)cc(-c2ccn(C(F)F)n2)cc1F)NC(=O)[C@@H](NC(=O)OC)C(C)(C)C(F)(F)F)OC(=O)CC(C)(C)c1c(CC(=O)NC(CP(=O)(O)O)C(=O)O)cc(C)cc1OP(=O)(O)O)C(C)(C)C(F)(F)F (some centres unmarked) [Example 34]
pEC50 (HIV-1 IIIB strain): 6.75 | [Compound] [1]: 2238.2 nM | half-life at 2 μM (PBS Stability Assay): 5.08 h | solubility at 2 h (Solubility in FaSSIF): 4810 µg/mL (≈ 2940 µM)

COC(=O)N[C@H](C(=O)N[C@@H](Cc1ccc(C#Cc2cnc(N3CC4CCC(C3)N4C3COC3)nc2)cc1)[C@H](CN(Cc1c(F)cc(-c2ccn(C(F)F)n2)cc1F)NC(=O)[C@@H](NC(=O)OC)C(C)(C)C(F)(F)F)OC(=O)CC(C)(C)c1c(CC(=O)N(C)CCCC(=O)O)cc(C)cc1OP(=O)(O)O)C(C)(C)C(F)(F)F [Example 93]
pEC50 (HIV-1 IIIB strain): 7.25 | [Compound] [1]: 1917.5 nM | half-life at 2 μM (PBS Stability Assay): 2.77 h | solubility at 2 h (Solubility in FaSSIF): < 1000 µg/mL

COC(=O)N[C@H](C(=O)N[C@@H](Cc1ccc(C#Cc2cnc(N3CC4CCC(C3)N4C3COC3)nc2)cc1)[C@H](CN(Cc1c(F)cc(-c2ccn(C(F)F)n2)cc1F)NC(=O)[C@@H](NC(=O)OC)C(C)(C)C(F)(F)F)OC(=O)OCOC(=O)CC(C)(C)c1c(CC(=O)N[C@@H](CCC(N)=O)C(=O)O)cc(C)cc1OP(=O)(O)O)C(C)(C)C(F)(F)F [Example 87]
pEC50 (HIV-1 IIIB strain): 8.44 | [Compound] [1]: 1161.5 nM | half-life at 2 μM (PBS Stability Assay): 5.41 h | solubility at 2 h (Solubility in FaSSIF): 4500 µg/mL (≈ 2670 µM)

COC(=O)N[C@H](C(=O)N[C@@H](Cc1ccc(C#Cc2cnc(N3CC4CCC(C3)N4C3COC3)nc2)cc1)[C@H](CN(Cc1c(F)cc(-c2ccn(C(F)F)n2)cc1F)NC(=O)[C@@H](NC(=O)OC)C(C)(C)C(F)(F)F)OC(=O)OCOC(=O)CC(C)(C)c1c(CC(=O)N[C@@H](CC(N)=O)C(=O)O)cc(C)cc1OP(=O)(O)O)C(C)(C)C(F)(F)F [Example 72]
pEC50 (HIV-1 IIIB strain): 8.27 | [Compound] [1]: 827.8 nM | half-life at 2 μM (PBS Stability Assay): 6.12 h | solubility at 2 h (Solubility in FaSSIF): 4980 µg/mL (≈ 2980 µM)

COC(=O)N[C@H](C(=O)N[C@@H](Cc1ccc(C#Cc2cnc(N3CC4CCC(C3)N4C3COC3)nc2)cc1)[C@H](CN(Cc1c(F)cc(-c2ccn(C(F)F)n2)cc1F)NC(=O)[C@@H](NC(=O)OC)C(C)(C)C(F)(F)F)OC(=O)CC(C)(C)c1c(CC(=O)N[C@H](CCC(=O)O)C(=O)O)cc(C)cc1OP(=O)(O)O)C(C)(C)C(F)(F)F [Example 92]
pEC50 (HIV-1 IIIB strain): 7.43 | [Compound] [1]: 1771.4 nM | half-life at 2 μM (PBS Stability Assay): 5.95 h | solubility at 2 h (Solubility in FaSSIF): 3660 µg/mL (≈ 2270 µM)

COC(=O)N[C@H](C(=O)N[C@@H](Cc1ccc(C#Cc2cnc(N3CC4CCC(C3)N4C3COC3)nc2)cc1)[C@H](CN(Cc1c(F)cc(-c2ccn(C(F)F)n2)cc1F)NC(=O)[C@@H](NC(=O)OC)C(C)(C)C(F)(F)F)OC(=O)OCOC(=O)CC(C)(C)c1c(CC(=O)N2CCN(S(=O)(=O)N(C)C)CC2)cc(C)cc1OP(=O)(O)O)C(C)(C)C(F)(F)F [Example 86]
pEC50 (HIV-1 IIIB strain): 8.39 | [Compound] [1]: 1890 nM | biALP Intermediate A or [Amprenavir] (% of total) [1]: 5.6 % of total | [Intermediate A] or [Amprenavir] [1]: 112.9 nM | half-life at 2 μM (PBS Stability Assay): 2.59 h | solubility at 2 h (Solubility in FaSSIF): < 1000 µg/mL

COC(=O)N[C@H](C(=O)N[C@@H](Cc1ccc(C#Cc2cnc(N3CC4CCC(C3)N4C3COC3)nc2)cc1)[C@H](CN(Cc1c(F)cc(-c2ccn(C(F)F)n2)cc1F)NC(=O)[C@@H](NC(=O)OC)C(C)(C)C(F)(F)F)OC(=O)CC(C)(C)c1c(CC(=O)NC(CCCC(=O)O)C(=O)O)cc(C)cc1OP(=O)(O)O)C(C)(C)C(F)(F)F (some centres unmarked) [Example 41]
pEC50 (HIV-1 IIIB strain): 7.36 | [Compound] [1]: 2074.8 nM | half-life at 2 μM (PBS Stability Assay): 5.02 h

COC(=O)N[C@H](C(=O)N[C@@H](Cc1ccc(C#Cc2cnc(N3CC4CCC(C3)N4C3COC3)nc2)cc1)[C@H](CN(Cc1c(F)cc(-c2ccn(C(F)F)n2)cc1F)NC(=O)[C@@H](NC(=O)OC)C(C)(C)C(F)(F)F)OC(=O)CC(C)(C)c1c(CC(=O)N[C@@H](CC(=O)O)C(=O)O)cc(C)cc1OP(=O)(O)O)C(C)(C)C(F)(F)F [Example 23]
pEC50 (HIV-1 IIIB strain): 6.69 | half-life at 2 μM (PBS Stability Assay): 11.7 h | solubility at 2 h (Solubility in FaSSIF): 4540 µg/mL (≈ 2840 µM)

COC(=O)N[C@H](C(=O)N[C@@H](Cc1ccc(C#Cc2cnc(N3CC4CCC(C3)N4C3COC3)nc2)cc1)[C@H](CN(Cc1c(F)cc(-c2ccn(C(F)F)n2)cc1F)NC(=O)[C@@H](NC(=O)OC)C(C)(C)C(F)(F)F)OC(=O)CC(C)(C)c1c(CC(=O)Nc2ccccn2)cc(C)cc1OP(=O)(O)O)C(C)(C)C(F)(F)F [Example 13, (5S,10S,11S,14S)-8-(4-(1-(difluoromethyl)-1H-pyrazol-3-yl)-2,6-difluorobenzyl)-11-(4-((2-(8-(oxetan-3-yl)-3,8-diazabicyclo[3.2.1]octan-3-yl)pyrimidin-5-yl)ethynyl)benzyl)-3,6,13,16-tetraoxo-5,14-bis(1,1,1-trifluoro-2-methylpropan-2-yl)-2,17-dioxa-4,7,8,12,15-pentaazaoctadecan-10-yl 3-methyl-3-(4-methyl-2-(2-oxo-2-(pyridin-2-ylamino)ethyl)-6-(phosphonooxy)phenyl)butanoate]
pEC50 (HIV-1 IIIB strain): 6.65 | [Compound] [1]: 1660.2 nM | biALP Intermediate A or [Amprenavir] (% of total) [1]: 0.1 % of total | [Intermediate A] or [Amprenavir] [1]: 1.8 nM | half-life at 2 μM (PBS Stability Assay): 1.98 h
